Test systems include Bacillus subtilis; Escherichia coli; Pseudomonas aeruginosa; Staphylococcus aureus; Aeromonas hydrophila; Edwardsiella tarda; Candida albicans; Bacillus megaterium Bm11; Cryptococcus neoformans; Escherichia coli D21; Escherichia coli ML-35; Enterococcus faecium; Serratia marcescens; Streptococcus agalactiae; Escherichia coli W160-37.
Experiment in all cases: ≥ marks a high value that may be exact or a test limit, other limits are often not marked, values filed in µg/mL are converted to µM
Assay [1] has as its system Escherichia coli ATCC 25922.
For assay [2], the system named is Candida albicans ATCC 37092.
Assay [3] deals with Staphylococcus aureus ATCC 29213.
In assay [4] the test system is Staphylococcus aureus ATCC 25923.
In assay [5] the test system is Salmonella enterica subsp. enterica serovar Typhimurium ATCC 14028.
Assay [6] relates to Staphylococcus aureus Cowan 1.
For assay [7], the system named is Staphylococcus epidermidis ATCC 35984.
Assay [8] relates to Escherichia coli KCTC 1682.
Assay [9] has as its system Bacillus subtilis KCTC 3068.
The test system of assay [10] is Staphylococcus aureus KCTC 1621.
Assay [11] relates to Staphylococcus epidermidis KCTC 1917.
The test system of assay [12] is Escherichia coli O18:K1:H7 Bort.
For assay [13], the system named is Pseudomonas aeruginosa ATCC 27853.
Assay [14] deals with Pseudomonas aeruginosa KCTC 1637.
In assay [15] the test system is Staphylococcus epidermidis ATCC 12228.
The test system of assay [16] is Salmonella typhimurium KCTC 1926.
Assay [17] concerns Serratia marcescens ATCC 8100.

≈ marks a conversion by molar mass, not a printed value. Where “and” joins values, the source holds several entries; their conditions need not be identical. Equal entries are not always repeated. Bounds are passed on as bounds.

A word on the MIC: it is the smallest concentration in the dilution series that meets the test's criterion for growth inhibition. Low values mean inhibition by little substance, high ones a need for much substance. For the compound `CC[C@H](C)[C@H](NC(=O)[C@H](CC(C)C)NC(=O)CNC(=O)[C@H](Cc1cnc[nH]1)NC(=O)[C@@H](NC(=O)[C@H](Cc1cnc[nH]1)NC(=O)[C@H](CCCCN)NC(=O)CNC(=O)[C@@H](NC(=O)[C@H](CO)NC(=O)[C@H](Cc1ccccc1)NC(=O)[C@H](CC(C)C)NC(=O)CNC(=O)CNC(=O)[C@@H](NC(=O)[C@@H](NC(=O)[C@H](Cc1cnc[nH]1)NC(=O)[C@H](Cc1cnc[nH]1)NC(=O)[C@@H](NC(=O)[C@@H](N)Cc1ccccc1)[C@@H](C)CC)[C@@H](C)CC)[C@@H](C)CC)C(C)C)[C@@H](C)CC)C(=O)N[C@@H](Cc1cnc[nH]1)C(=O)NCC(=O)N[C@@H](Cc1cnc[nH]1)C(=O)O` [FIHHIIGGLFSVGKHIHGLIHGH], the MIC is 3 µM (≈ 7.58 µg/mL) against Bacillus subtilis; 6.7 µM (≈ 16.9 µg/mL) against Escherichia coli; 35 µM (≈ 88.4 µg/mL) in the assay on Pseudomonas aeruginosa; 5 µM (≈ 12.6 µg/mL) against Staphylococcus aureus; not below 160 µM in the assay with Aeromonas hydrophila; not below 160 µM with Edwardsiella tarda. The compound further showed an MIC against Candida albicans of 20 µM (≈ 50.5 µg/mL).
As for `CC(C)C[C@H](NC(=O)[C@@H](N)CCCN=C(N)N)C(=O)N1CCC[C@H]1C(=O)N[C@@H](CCCN=C(N)N)C(=O)N1CCC[C@H]1C(=O)N[C@@H](CCCN=C(N)N)C(=O)N1CCC[C@H]1C(=O)N[C@@H](CCCN=C(N)N)C(=O)N1CCC[C@H]1C(=O)N[C@@H](CC(C)C)C(=O)N1CCC[C@H]1C(=O)N[C@@H](Cc1ccccc1)C(=O)N1CCC[C@H]1C(=O)N[C@@H](CCCN=C(N)N)C(=O)N1CCC[C@H]1C(=O)NCC(=O)O` [RLPRPRPRPLPFPRPG], the MIC in [1] was 114 µM (≈ 218 µg/mL); in assay [2], not below 500 µM; in assay [3] it was more than 500 µM.
For the compound `CC(C)C[C@H](NC(=O)[C@H](CCCCN)NC(=O)[C@H](CCCCN)NC(=O)[C@H](Cc1ccccc1)NC(=O)[C@H](CC(C)C)NC(=O)[C@H](CCCCN)NC(=O)[C@H](CCCCN)NC(=O)[C@H](Cc1ccccc1)NC(=O)[C@H](CCCCN)NC(=O)[C@H](CCCCN)NC(=O)[C@H](CCCN=C(N)N)NC(=O)[C@H](Cc1ccccc1)NC(=O)[C@H](CCCN=C(N)N)NC(=O)[C@H](CCCCN)NC(=O)[C@H](Cc1ccccc1)NC(=O)[C@H](CCCN=C(N)N)NC(=O)CN)C(=O)N[C@@H](CO)C(N)=O` [GRFKRFRKKFKKLFKKLS], the minimum inhibitory concentration (MIC) in assay [4] is 2 µM and 4 µM; in [1], 2 µM (≈ 4.68 µg/mL); with Bacillus megaterium Bm11, 2 µM (≈ 4.68 µg/mL); against Cryptococcus neoformans, 4 µM (≈ 9.37 µg/mL); with Escherichia coli D21, 4 µM (≈ 9.37 µg/mL); in [5], 4 µM (≈ 9.37 µg/mL). Also, the MIC against Staphylococcus aureus is 4 µM (≈ 9.37 µg/mL); in assay [6] it was 2 µM (≈ 4.68 µg/mL); in [7] it was 2 µM (≈ 4.68 µg/mL); with Escherichia coli ML-35, 4 µM (≈ 9.37 µg/mL); in assay [8], 4 µM and 2.83 µM; in assay [9], 4 µM (≈ 9.37 µg/mL). Moreover, the MIC in [10] was 4 µM and 2.83 µM; in the assay on Enterococcus faecium, 8 µM (≈ 18.7 µg/mL); in assay [11] it was 4 µM (≈ 9.37 µg/mL); against Serratia marcescens, 4 µM (≈ 9.37 µg/mL); in [12], 8 µM (≈ 18.7 µg/mL); in assay [13] it was 2 µM (≈ 4.68 µg/mL). Besides, the MIC in [14] turned out to be 4 µM (≈ 9.37 µg/mL); in assay [15], 1 µM (≈ 2.34 µg/mL); in assay [16] it was 2 µM (≈ 4.68 µg/mL); in assay [17] it was 2 µM (≈ 4.68 µg/mL); against Streptococcus agalactiae it was 1 µM (≈ 2.34 µg/mL); against Candida albicans, 16 µM (≈ 37.5 µg/mL).
`CC[C@H](C)[C@H](NC(=O)[C@H](CC(N)=O)NC(=O)[C@@H](NC(=O)[C@@H](NC(=O)[C@H](CCCCN)NC(=O)[C@H](CCC(N)=O)NC(=O)[C@H](CCC(N)=O)NC(=O)[C@H](C)NC(=O)[C@H](CCC(=O)O)NC(=O)[C@H](CCC(=O)O)NC(=O)[C@@H](NC(=O)[C@H](CC(=O)O)NC(=O)[C@H](CCCCN)NC(=O)[C@H](CC(C)C)NC(C)=O)C(C)C)[C@@H](C)CC)[C@@H](C)CC)C(=O)N[C@H](C(=O)N[C@@H](CCCN=C(N)N)C(=O)N[C@@H](CCCN=C(N)N)C(=O)N[C@@H](CC(C)C)C(N)=O)[C@@H](C)CC` [LKDVEEAQQKIINIIRRL]: the MIC in the assay on Escherichia coli W160-37 was determined as 22 µM (≈ 48.9 µg/mL).

Values taken from DBAASP.
